Article PMC11678425, “(-)-Syringaresinol Exerts an Antidepressant-like Activity in Mice by Noncompetitive Inhibition of the Serotonin Transporter” (Pharmaceuticals, 2024)

Experiments:
hSERT P560G = molecular target: T1, hSERT P560G (Homo sapiens, UniProt P31645, P560G); experiment: ASP^+ binding, hSERT P560G; conditions: S2 site mutant, read-out: SYR IC50 for Binding
T1 construct: forward and reverse primers were used to amplify a full-length hSERT; expressed in transfected cells; host or cells: HeLa cells, transient, pcDNA3.1

[1] = test system: hSERT S1 mutants (Y95F, I172F, S438T); experiment: ASP^+ binding, S1 site mutants compared with WT; parameters: species or system human; conditions: Tyr95 to Phe, Ile172 to Phe, Ser438 to Thr
Protocol: HeLa cells were cultured in Dulbecco’s Modified Eagle’s Medium supplemented with 10% fetal bovine serum, 100 units/mL penicillin, and 100 μg/mL streptomycin at 37 °C in a humidified 5% CO2 incubator. Cells grown at ~70% confluence in a 6 cm culture dish were transfected with hSERT cDNA in pcDNA3.1 by lipofectamine 2000. Transfected cells were incubated for 12 h at 37 °C with 5% CO2 and then transferred into 96-well plates. After being grown for an additional 12–16 h, the cells were then assayed for APP^+ uptake or ASP^+ binding.
ASP^+ binding to SERT expressed on the cell surface was measured with digitonin-permeabilized cells as described previously. The cells expressing WT or mutants of hSERT were incubated with 10 μM ASP^+ in the presence of 25 μg/mL digitonin at 22 °C for 5 min. After removing excess ASP^+ by 3× rapid washing, ASP^+ fluorescence retained in the cell membrane was determined by fluorescence spectrometry.
hSERT mutants were generated using the Mut Express II Fast Mutagenesis kit (Vazyme, Nanjing, China). Briefly, forward and reverse primers were used to amplify a full-length hSERT. The PCR products were then digested with restriction enzymes, excised from agarose gels, and ligated into pcDNA3.1. All mutations were confirmed by full-length DNA sequencing.

hSERT WT = molecular target: T2, hSERT WT (Homo sapiens, UniProt P31645); experiment: APP^+ uptake, hSERT WT; assay type: cell-based
T2 construct: forward and reverse primers were used to amplify a full-length hSERT; expressed in transfected cells; host or cells: HeLa cells (CCL-2), transient, pcDNA3.1

hSERT L563A = molecular target: T3, hSERT L563A (Homo sapiens, UniProt P31645, L563A); experiment: APP^+ uptake, hSERT L563A; assay type: cell-based; conditions: S2 site mutant, read-out: SYR IC50 for Transport
T3 construct: forward and reverse primers were used to amplify a full-length hSERT; expressed in transfected cells; host or cells: HeLa

CUMS mice = experiment: Home cage food consumption after NSFT; assay type: in vivo, mouse; conditions: mouse, in vivo
Protocol: Figure 6 Animal behavioral tests. (A) Schematic illustration of animal behavioral test timeline. Mice were exposed to CUMS for 3 weeks, as described in Section 4. […] For the CUMS group, saline was given instead of drugs. NSFT was performed after 16–18 h food deprivation, followed by FST and TST. (B) NSFT. The latency time to food in NSFT was counted. (C) Home cage food consumption. Food consumed by individual mice in the home cage (g) within a 20 min period was measured after NSFT. (D) FST. The immobility time during a 2 to 6 min period in FST was measured. (E) TST. The immobility time during 2 to 6 min was counted. n = 8–10 mice/group. Bars represent the mean ± SEM. * p < 0.05 compared with the control or CUMS group, respectively, by one-way ANOVA followed by post hoc tests. ns, not significant.
NSFT was performed after 16 h food deprivation, as described previously. The mouse was placed in an open field (24 × 40 × 14 cm), where a new chow was put in the center, and the latency time to bite food was counted over 10 min. Home cage feeding within a 20 min period was measured after the test. FST was carried out according to a protocol described previously. The mouse was placed into a beaker (Bomex, Beijing, China) with a height of 18 cm filled with water (22 ± 1 °C) for 6 min. The immobile time was measured during minutes 2–6. […] The immobile time during minutes 2–6 was measured.

c-Fos = c-Fos immunohistochemistry in hippocampus of CUMS mice; assay type: in vivo, mouse; conditions: same dosage as fluoxetine (10 mg/kg i.p.)
Description: Figure 8 SYR effects on the expression of c-Fos and synaptic proteins in the hippocampus. (A) Representative immunohistochemical images of c-Fos expression in the hippocampus with the indicated treatments. (B) Quantitative analysis for hippocampal c-Fos expression with various treatments. Protein expression level is expressed as a percentage of c-Fos fluorescence measured in the control group. Bars represent the mean ± SEM (n = 4). ** p < 0.01 compared with the control or CUMS group by one-way ANOVA followed by post hoc tests. (C) Representative immunoblots of the synaptic proteins BDNF, PSD-95, GluA1, and vGluT1 with various treatments. (D–G) Quantification of the expression of synaptic proteins BDNF (D), PSD-95 (E), GluA1 (F), and vGluT1 (G). The expression level is expressed as a percentage of the integrated density obtained from the control group. Bars represent the mean ± SEM (n = 4). * p < 0.05, ** p < 0.01 by one-way ANOVA followed by post hoc tests.
Mouse mPFC and hippocampal slices were prepared as previously described. Briefly, mice were deeply anesthetized with 4% pentobarbital sodium (Sigma-Aldrich, Saint Louis, MI, USA), and perfused transcardially with PBS, followed by 4% phosphate-buffered paraformaldehyde. […]

hSERT = hSERT (Homo sapiens, UniProt P31645); conditions: 22 °C
hSERT, sequence (P31645 whole entry): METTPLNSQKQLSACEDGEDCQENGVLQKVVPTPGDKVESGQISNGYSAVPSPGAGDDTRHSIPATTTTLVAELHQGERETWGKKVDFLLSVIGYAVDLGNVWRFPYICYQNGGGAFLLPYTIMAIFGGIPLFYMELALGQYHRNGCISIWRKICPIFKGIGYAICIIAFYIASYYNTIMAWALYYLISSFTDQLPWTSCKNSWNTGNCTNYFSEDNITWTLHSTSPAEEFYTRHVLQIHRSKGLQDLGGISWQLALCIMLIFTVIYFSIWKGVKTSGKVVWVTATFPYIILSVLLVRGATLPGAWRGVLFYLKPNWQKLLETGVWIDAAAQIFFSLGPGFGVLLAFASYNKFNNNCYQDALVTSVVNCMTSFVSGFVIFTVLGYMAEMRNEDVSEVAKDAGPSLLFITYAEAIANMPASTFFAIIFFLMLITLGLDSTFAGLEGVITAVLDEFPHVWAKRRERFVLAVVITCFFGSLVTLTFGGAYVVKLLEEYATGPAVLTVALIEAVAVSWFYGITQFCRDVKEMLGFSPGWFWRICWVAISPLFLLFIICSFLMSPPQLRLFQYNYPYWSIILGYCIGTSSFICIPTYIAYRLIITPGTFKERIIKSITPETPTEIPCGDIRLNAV

T2 sequence (P31645 whole entry): as above
T1 sequence (P31645 whole entry P560G): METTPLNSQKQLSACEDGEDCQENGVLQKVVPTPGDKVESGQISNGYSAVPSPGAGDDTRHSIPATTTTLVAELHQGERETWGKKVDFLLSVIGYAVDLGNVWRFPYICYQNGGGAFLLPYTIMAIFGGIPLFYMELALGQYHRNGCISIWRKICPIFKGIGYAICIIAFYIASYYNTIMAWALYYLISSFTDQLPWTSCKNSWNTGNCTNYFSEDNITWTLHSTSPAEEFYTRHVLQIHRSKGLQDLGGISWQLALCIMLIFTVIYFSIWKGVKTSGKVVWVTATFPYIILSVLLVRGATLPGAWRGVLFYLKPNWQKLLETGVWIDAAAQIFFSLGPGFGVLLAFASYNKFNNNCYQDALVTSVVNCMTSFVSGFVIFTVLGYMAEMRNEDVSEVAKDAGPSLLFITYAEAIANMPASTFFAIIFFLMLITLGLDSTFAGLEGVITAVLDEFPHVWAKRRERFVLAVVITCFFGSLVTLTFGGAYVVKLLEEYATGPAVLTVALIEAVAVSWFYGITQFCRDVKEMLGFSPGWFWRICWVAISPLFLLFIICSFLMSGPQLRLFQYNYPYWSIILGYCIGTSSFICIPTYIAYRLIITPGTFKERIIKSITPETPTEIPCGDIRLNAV
T3 sequence (P31645 whole entry L563A): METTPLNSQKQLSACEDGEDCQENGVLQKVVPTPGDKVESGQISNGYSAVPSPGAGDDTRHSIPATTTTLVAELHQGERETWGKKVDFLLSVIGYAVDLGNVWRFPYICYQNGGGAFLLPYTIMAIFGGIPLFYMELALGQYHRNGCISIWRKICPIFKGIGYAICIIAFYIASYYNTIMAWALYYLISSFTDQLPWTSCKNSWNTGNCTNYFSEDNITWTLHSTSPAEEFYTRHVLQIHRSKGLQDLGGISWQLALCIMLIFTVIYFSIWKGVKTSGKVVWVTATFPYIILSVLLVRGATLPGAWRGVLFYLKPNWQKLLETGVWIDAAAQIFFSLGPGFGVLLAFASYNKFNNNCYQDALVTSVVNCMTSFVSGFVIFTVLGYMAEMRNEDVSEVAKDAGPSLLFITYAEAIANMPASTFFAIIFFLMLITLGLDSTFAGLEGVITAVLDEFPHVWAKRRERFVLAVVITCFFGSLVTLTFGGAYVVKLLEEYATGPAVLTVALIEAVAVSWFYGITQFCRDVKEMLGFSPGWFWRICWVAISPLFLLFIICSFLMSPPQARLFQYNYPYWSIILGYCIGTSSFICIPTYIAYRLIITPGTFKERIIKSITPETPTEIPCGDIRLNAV

How did the IC50 (hSERT P560G) turn out when `COc1cc([C@@H]2OC[C@@H]3[C@H]2CO[C@H]3c2cc(OC)c(O)c(OC)c2)cc(OC)c1O` [SYR, (-)-syringaresinol] was run?
The IC50 was 14.7 ± 0.26 µM.

And the “effect of S1 site mutations on SYR inhibition of ASP^+ binding” value [1]?
The value was “little effect”.

And the IC50 (hSERT WT; WT, APP^+ uptake, SYR added 5 min prior to APP^+, read-out: SYR IC50 for Transport)?
Its IC50 is 0.25 ± 0.01 µM.

What about the “Vmax of APP^+ transport with addition of SYR” value (hSERT WT; […] SYR) of the same compound?
Its value is 12.95 ± 1.52 AFU/min.

And the “increase of inhibitory potency compared with SAG” value (hSERT WT; compared with glycoside derivative SAG)?
The value was “approximately 10 fold”.

And the “mode of inhibition of APP^+ transport” value (hSERT WT; decreased Vmax, little change in Km)?
Its value is “noncompetitive inhibitor”.

And the IC50 (hSERT L563A)?
The IC50 was 6.28 ± 0.57 µM.

And the “home cage food consumption” value (CUMS mice)?
Its value is “little effect”.

What about the “CUMS-induced decrease in expression of c-Fos in the hippocampus” value (c-Fos) of the same compound?
Its value is “effectively alleviate”.

What about the “effect on 5-HT-induced APP^+ efflux” value (hSERT; 10 μM + 10 μM 5-HT) of the same compound?
The value was “effectively blocked”.

And the “effect on basal APP^+ efflux” value (hSERT; 10 μM, cells preloaded with APP^+)?
Its value is “not by SYR”.
